Data from patent US20230192700A1, “PYRAZOLOPYRAZINES ACTING ON CANCERS VIA INHIBITION OF CDK12” (Bayer Aktiengesellschaft, priority 2020, published 2023).
Like-named read-outs stand apart in the source and are kept apart here.

Tests used:
[1] = test system: MDA-MB-231 human breast cancer cells; test: Proliferation assay MDA-MB-231 (crystal violet); format: cell-based; conditions: MDA-MB-231 cells, 4 days, median, read-out: Prolif-MDA MB231 IC50 - [mol/l] (median)
Method: 4. Proliferation assay: MDA-MB-231, CAL-120
Human tumour cells were originally obtained from the American Type Culture Collection (ATCC), or from the Deutsche Sammlung von Mikroorganismen and Zellkulturen (DSMZ, German Collection of Microorganisms and Cell Cultures). Cultivated tumour cells (CAL-120, human breast adenocarcinoma cells, DSMZ ACC-459; MDA-M B-231, human breast cancer cells, ATCC HTB-26) were plated at a density of 4,000 cells/well in a 96-well multititer plate in 200 microL of their respective growth medium supplemented 10% fetal calf serum. After 24 hours, the cells of one plate (zero-point plate) were stained with crystal violet (see below), while the medium of the other plates was supplemented with the test substances in various concentrations (0 micromol/L, as well as in the range of 0.01-10 micromol/L; the final concentration of the solvent dimethyl sulfoxide was adjusted to 0.1%) using a Tecan HP D300 Digital Dispenser. The cells were incubated for 4 days in the presence of test substances. Cell proliferation was determined by staining the cells with crystal violet: the cells were fixed by adding 20 microL/measuring point of an 11% glutaric aldehyde solution for 15 minutes at room temperature. After three washing cycles of the fixed cells with water, the plates were dried at room temperature. The cells were stained by adding 100 microL/measuring point of a 0.1% crystal violet solution (pH 3.0). After three washing cycles of the stained cells with water, the plates were dried at room temperature. The dye was dissolved by adding 100 microL/measuring point of a 10% acetic acid solution. The extinction was determined by photometry at a wavelength of 595 nm. The change of cell number, in percent, was calculated by normalization of the measured values to the extinction values of the zero-point plate(=0%) and the extinction of the untreated (0 μM) cells(=100%). The IC50 values (inhibitory concentration at 50% of maximal effect) were determined by means of a 4 parameter fit.

CDK12 = molecular target: T1, CDK12 (Homo sapiens, UniProt Q9NYV4); test: CDK12 nuclear protein level: immunofluorescence/high content analysis in CAL-120 cells; format: cell-based; conditions: for DC50: CAL-120 cells, 24 h, nuclear CDK12 staining intensity, median, read-out: CDK12 degradation IF DC50 - [mol/l] (median); for (IC50 CDK12 high ATP) to (Degradation DC50 CDK12) ratio: ratio of IC50 CDK12 hATP (2 mM ATP) to DC50 CDK12 (IF, CAL-120)
T1 construct: endogenous in cells; host or cells: CAL-120 human breast cancer cells (DSMZ ACC 459)
Method: 6. CDK12 Nuclear Protein Level: Immunofluorescence/High Content Analysis
In the context of the present invention, the term “DC50 CDK12” refers to the DC50 values obtained according to the assay described in this section (6) herein below, i.e. the DC50 values for the degradation of CDK12.:
CAL-120 human breast cancer cells (DSMZ ACC 459) are seeded in 1536-well microtiter plates (800 cells per well) containing 50 nanoL of compounds in Dose-Response. Control wells received DMSO or Reference Example 1. Plates are then incubated for 24 h at 37° C. in an humidified incubator and fixed with 4% PFA for 10 min. Then immunofluorescence (IF) against CDK12 (CellSignalling CDK12 Antibody #11973, rabbit, 1:100 dilution) is performed using standard IF protocols. Cells are then stained with Hoechst 33342 (Life Technologies, H-1399, 0.1 microg/mL) and imaged on an automated confocal microscopy system (e.g. Perkin Elmer Opera Phenix). Nuclear and cytoplasmic intensity as well as the nuclear/cytoplasmic intensity ratio is determined by automated image analysis using custom generated scripts (MetaXpress). Data is then transferred to Genedata Screener software, normalized to DMSO and control and DC50 values (degrading concentration to achieve 50% reduction of nuclear CDK12 staining intensity relative to controls) are reported.

T1 sequence (Q9NYV4 whole entry): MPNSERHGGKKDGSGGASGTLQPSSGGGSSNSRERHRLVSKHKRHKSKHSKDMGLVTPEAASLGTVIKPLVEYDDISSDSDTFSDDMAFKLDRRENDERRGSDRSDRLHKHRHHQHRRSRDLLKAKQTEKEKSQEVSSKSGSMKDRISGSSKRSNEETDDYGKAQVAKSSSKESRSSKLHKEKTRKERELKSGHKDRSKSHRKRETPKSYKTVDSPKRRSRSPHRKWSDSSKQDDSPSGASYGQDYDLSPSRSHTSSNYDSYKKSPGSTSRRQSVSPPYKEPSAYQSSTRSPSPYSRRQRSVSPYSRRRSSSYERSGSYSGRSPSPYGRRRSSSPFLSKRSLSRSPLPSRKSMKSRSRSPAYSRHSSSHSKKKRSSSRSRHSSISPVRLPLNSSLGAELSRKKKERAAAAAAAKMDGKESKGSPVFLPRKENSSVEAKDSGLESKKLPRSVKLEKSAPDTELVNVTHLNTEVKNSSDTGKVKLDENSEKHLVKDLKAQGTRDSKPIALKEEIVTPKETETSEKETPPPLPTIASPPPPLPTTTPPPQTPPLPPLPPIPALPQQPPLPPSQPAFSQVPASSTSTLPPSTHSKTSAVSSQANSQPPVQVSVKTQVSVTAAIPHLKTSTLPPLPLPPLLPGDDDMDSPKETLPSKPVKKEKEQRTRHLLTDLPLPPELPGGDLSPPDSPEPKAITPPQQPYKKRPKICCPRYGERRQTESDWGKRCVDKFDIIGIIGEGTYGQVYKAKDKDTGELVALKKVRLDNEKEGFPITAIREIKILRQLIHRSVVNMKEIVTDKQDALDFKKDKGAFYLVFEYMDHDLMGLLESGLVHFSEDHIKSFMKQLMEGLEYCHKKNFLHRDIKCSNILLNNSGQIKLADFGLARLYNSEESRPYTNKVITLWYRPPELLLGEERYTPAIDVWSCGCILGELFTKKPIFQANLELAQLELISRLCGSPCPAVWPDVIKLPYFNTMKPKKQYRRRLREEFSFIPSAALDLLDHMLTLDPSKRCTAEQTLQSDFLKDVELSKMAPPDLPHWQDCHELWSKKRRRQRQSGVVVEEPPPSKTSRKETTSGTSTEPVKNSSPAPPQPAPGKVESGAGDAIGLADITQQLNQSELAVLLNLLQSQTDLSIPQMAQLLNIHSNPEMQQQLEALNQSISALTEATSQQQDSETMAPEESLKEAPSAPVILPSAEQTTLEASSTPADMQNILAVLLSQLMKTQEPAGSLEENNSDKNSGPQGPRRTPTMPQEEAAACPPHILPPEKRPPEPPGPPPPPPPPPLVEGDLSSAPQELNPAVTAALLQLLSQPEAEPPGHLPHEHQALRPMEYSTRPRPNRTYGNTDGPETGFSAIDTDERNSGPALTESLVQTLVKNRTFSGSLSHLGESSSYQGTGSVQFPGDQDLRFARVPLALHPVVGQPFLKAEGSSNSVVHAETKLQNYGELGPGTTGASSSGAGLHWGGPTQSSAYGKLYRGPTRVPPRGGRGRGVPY
T1 sequence (O75909 whole entry partner): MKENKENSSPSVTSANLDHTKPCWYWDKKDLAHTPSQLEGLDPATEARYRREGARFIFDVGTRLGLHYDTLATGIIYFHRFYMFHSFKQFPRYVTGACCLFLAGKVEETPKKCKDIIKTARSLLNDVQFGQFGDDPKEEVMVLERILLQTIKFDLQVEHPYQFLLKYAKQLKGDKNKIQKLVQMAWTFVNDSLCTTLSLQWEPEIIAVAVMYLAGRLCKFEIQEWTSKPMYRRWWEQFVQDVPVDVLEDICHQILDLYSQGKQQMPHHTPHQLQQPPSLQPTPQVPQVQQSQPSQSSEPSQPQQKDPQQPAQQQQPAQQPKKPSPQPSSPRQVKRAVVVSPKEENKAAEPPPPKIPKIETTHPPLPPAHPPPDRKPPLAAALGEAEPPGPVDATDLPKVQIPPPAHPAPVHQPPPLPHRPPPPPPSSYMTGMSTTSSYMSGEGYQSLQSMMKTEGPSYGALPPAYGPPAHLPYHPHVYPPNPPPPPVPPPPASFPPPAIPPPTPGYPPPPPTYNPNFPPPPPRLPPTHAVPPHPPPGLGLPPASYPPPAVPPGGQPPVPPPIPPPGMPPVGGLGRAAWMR

IC50 ([1]; Homo sapiens, MDA-MB-231, 96 h) | DC50 (CDK12) | (IC50 CDK12 high ATP) to (Degradation DC50 CDK12) ratio (CDK12) | IC50 [1] | Compound
0.0412 µM | 0.00807 µM | >2478 | – | CN1CCC(n2nc(NCc3nc4c(F)c(F)ccc4[nH]3)c3ncc(C4CC4)nc32)CC1 [Example 9, 6-cyclopropyl-N-[(4,5-difluoro-1H-benzimidazol-2-yl)methyl]-1-(1-methylpiperidin-4-yl)-1H-pyrazolo[3,4-b]pyrazin-3-amine]
0.873 µM | 0.676 µM | – | – | CC(CCN(C)C)n1nc(NCc2nc3ccccc3[nH]2)c2ncc(C3CC3)nc21 (racemic) [Example 62, (±)-N-[(1H-benzimidazol-2-yl)methyl]-6-cyclopropyl-1-[4-(dimethylamino)butan-2-yl]-1H-pyrazolo[3,4-b]pyrazin-3-amine]
0.0391 µM | 0.0144 µM | – | – | CN1CCC(n2nc(NCc3nc4c(C(F)(F)F)cccc4[nH]3)c3ncc(C4CC4)nc32)CC1 [Example 7, 6-cyclopropyl-1-(1-methylpiperidin-4-yl)-N-{[4-(trifluoromethyl)-1H-benzimidazol-2-yl]methyl}-1H-pyrazolo[3,4-b]pyrazin-3-amine]
– | 0.0412 µM | – | 0.217 µM | CN1CCC(n2nc(NCc3nc4ccccc4[nH]3)c3ncc(C4CC4)nc32)C1 (single isomer, unassigned) [Example 79, (−) or (+)-N-[(1H-benzimidazol-2-yl)methyl]-6-cyclopropyl-1-(1-methylpyrrolidin-3-yl)-1H-pyrazolo[3,4-b]pyrazin-3-amine]
0.137 µM | 0.0248 µM | >807 | – | c1ccc2[nH]c(CNc3nn(C4CCOC4)c4nc(C5CC5)cnc34)nc2c1 (single isomer, unassigned) [Example 17, (+) or (−)-N-[(1H-benzimidazol-2-yl)methyl]-6-cyclopropyl-1-(oxolan-3-yl)-1H-pyrazolo[3,4-b]pyrazin-3-amine]
0.037 µM | 0.00865 µM | >2312 | – | Cc1cccc2[nH]c(CNc3nn(C4CCOCC4)c4nc(C5CC5)cnc34)nc12 [Example 33, 6-cyclopropyl-N-[(4-methyl-1H-benzimidazol-2-yl)methyl]-1-(oxan-4-yl)-1H-pyrazolo[3,4-b]pyrazin-3-amine]
– | 0.0491 µM | 41 | – | CN1CCC(n2nc(NCc3nc4cc(SC(F)(F)F)ccc4[nH]3)c3ncc(C4CC4)nc32)CC1 [Example 27, 6-cyclopropyl-1-(1-methylpiperidin-4-yl)-N-({5-[(trifluoromethyl)sulfanyl]-1H-benzimidazol-2-yl}methyl)-1H-pyrazolo[3,4-b]pyrazin-3-amine]
– | 0.0469 µM | – | – | c1ccc2[nH]c(CNc3nn(C4COC4)c4nc(C5CC5)cnc34)nc2c1 [Example 55, N-[(1H-benzimidazol-2-yl)methyl]-6-cyclopropyl-1-(oxetan-3-yl)-1H-pyrazolo[3,4-b]pyrazin-3-amine]
– | 0.0496 µM | >403 | – | CC(C)n1nc(NCc2nc3ccccc3[nH]2)c2ncc(C3CC3)nc21 [Example 14, N-[(1H-benzimidazol-2-yl)methyl]-6-cyclopropyl-1-(propan-2-yl)-1H-pyrazolo[3,4-b]pyrazin-3-amine]
0.437 µM | 0.0205 µM | – | – | COCCn1nc(NCc2nc3ccccc3[nH]2)c2ncc(C3CC3)nc21 [Example 65, N-[(1H-benzimidazol-2-yl)methyl]-6-cyclopropyl-1-(2-methoxyethyl)-1H-pyrazolo[3,4-b]pyrazin-3-amine]
– | 0.912 µM | >22 | 1.78 µM | CC(CCN(C)C)n1nc(NCc2nc3ccccc3[nH]2)c2ncc(C3CC3)nc21 (single isomer, unassigned) [Example 63, (+) or (−)-N-[(1H-benzimidazol-2-yl)methyl]-6-cyclopropyl-1-[4-(dimethylamino)butan-2-yl]-1H-pyrazolo[3,4-b]pyrazin-3-amine]
0.0708 µM | 0.0277 µM | – | – | O[C@H]1C[C@@H](Cn2nc(NCc3nc4ccccc4[nH]3)c3ncc(C4CC4)nc32)C1 [Example 71, cis-3-[(3-{[(1H-benzimidazol-2-yl)methyl]amino}-6-cyclopropyl-1H-pyrazolo[3,4-b]pyrazin-1-yl)methyl]cyclobutan-1-ol]
0.00802 µM | 0.0118 µM | >1695 | – | CN1CCC(n2nc(NCc3nc4cc(Cl)ccc4[nH]3)c3ncc(C4CC4)nc32)CC1 [Example 22, N-[(5-chloro-1H-benzimidazol-2-yl)methyl]-6-cyclopropyl-1-(1-methylpiperidin-4-yl)-1H-pyrazolo[3,4-b]pyrazin-3-amine]
– | 0.0336 µM | >596 | 0.0347 µM | CN1CCC(n2nc(NCc3nc4ccccc4[nH]3)c3ncc(C4CC4)nc32)C1 (single isomer, unassigned) [Example 78, (+) or (−)-N-[(1H-benzimidazol-2-yl)methyl]-6-cyclopropyl-1-(1-methylpyrrolidin-3-yl)-1H-pyrazolo[3,4-b]pyrazin-3-amine]
0.235 µM | 0.0412 µM | >102 | – | OCCCn1nc(NCc2nc3ccccc3[nH]2)c2ncc(C3CC3)nc21 [Example 60, 3-(3-{[(1H-benzimidazol-2-yl)methyl]amino}-6-cyclopropyl-1H-pyrazolo[3,4-b]pyrazin-1-yl)propan-1-ol]
– | 0.0131 µM | >1526 | – | Cc1ccc2[nH]c(CNc3nn(C4CCN(C)CC4)c4nc(C5CC5)cnc34)nc2c1 [Example 6, 6-cyclopropyl-N-[(5-methyl-1H-benzimidazol-2-yl)methyl]-1-(1-methylpiperidin-4-yl)-1H-pyrazolo[3,4-b]pyrazin-3-amine]
– | 0.0107 µM | – | – | O[C@H]1CC[C@@H](n2nc(NCc3nc4ccccc4[nH]3)c3ncc(C4CC4)nc32)CC1 [Example 51, cis-4-(3-{[(1H-benzimidazol-2-yl)methyl]amino}-6-cyclopropyl-1H-pyrazolo[3,4-b]pyrazin-1-yl)cyclohexan-1-ol]
– | 0.0493 µM | – | – | CC1(C)CC(n2nc(NCc3nc4ccccc4[nH]3)c3ncc(C4CC4)nc32)CC(C)(C)O1 [Example 52, N-[(1H-benzimidazol-2-yl)methyl]-6-cyclopropyl-1-(2,2,6,6-tetramethyloxan-4-yl)-1H-pyrazolo[3,4-b]pyrazin-3-amine]
– | 0.155 µM | >129 | – | Cn1nc(NCc2nc3ccccc3[nH]2)c2ncc(C3CC3)nc21 [Example 15, N-[(1H-benzimidazol-2-yl)methyl]-6-cyclopropyl-1-methyl-1H-pyrazolo[3,4-b]pyrazin-3-amine]
– | 0.00711 µM | – | – | O[C@H]1CC[C@H](n2nc(NCc3nc4cc(F)ccc4[nH]3)c3ncc(C4CC4)nc32)CC1 [Example 56, trans-4-(6-cyclopropyl-3-{[(5-fluoro-1H-benzimidazol-2-yl)methyl]amino}-1H-pyrazolo[3,4-b]pyrazin-1-yl)cyclohexan-1-ol]
– | 0.0131 µM | – | – | c1ccc2[nH]c(CNc3nn(C4CC5(COC5)C4)c4nc(C5CC5)cnc34)nc2c1 [Example 54, N-[(1H-benzimidazol-2-yl)methyl]-6-cyclopropyl-1-(2-oxaspiro[3.3]heptan-6-yl)-1H-pyrazolo[3,4-b]pyrazin-3-amine]
